In series [1] the target is T1, 12-LO (Homo sapiens, UniProt P18054).
T1 construct: endogenous in cells; host or cells: human blood neutrophil preparation
T1 sequence (P18054 1-663): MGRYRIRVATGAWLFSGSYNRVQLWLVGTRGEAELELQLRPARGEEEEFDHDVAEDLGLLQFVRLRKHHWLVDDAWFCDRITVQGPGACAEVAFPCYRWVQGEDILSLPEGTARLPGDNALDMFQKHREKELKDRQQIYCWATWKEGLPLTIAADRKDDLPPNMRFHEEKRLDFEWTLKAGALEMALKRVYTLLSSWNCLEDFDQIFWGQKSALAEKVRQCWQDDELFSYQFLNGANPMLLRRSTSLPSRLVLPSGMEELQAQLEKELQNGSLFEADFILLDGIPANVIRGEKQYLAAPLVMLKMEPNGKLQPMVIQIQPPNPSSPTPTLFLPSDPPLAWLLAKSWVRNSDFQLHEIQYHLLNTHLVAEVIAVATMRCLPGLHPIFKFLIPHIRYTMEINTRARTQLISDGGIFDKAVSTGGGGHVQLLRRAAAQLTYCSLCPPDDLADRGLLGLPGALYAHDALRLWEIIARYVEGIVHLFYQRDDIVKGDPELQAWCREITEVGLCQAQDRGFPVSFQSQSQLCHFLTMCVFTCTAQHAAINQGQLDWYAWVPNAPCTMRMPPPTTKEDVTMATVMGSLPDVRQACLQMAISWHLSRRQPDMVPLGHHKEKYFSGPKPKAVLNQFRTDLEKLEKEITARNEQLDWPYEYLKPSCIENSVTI
The experiment in a line: 12-LO inhibition in intact human neutrophils. The settings on record: without DTT. It is filed as cell-based. On the procedure:
Peripheral blood (University Hospital Jena, Germany) was withdrawn from healthy adult volunteers with consent that had not taken any anti-inflammatory drugs during the last 10 days, by venipuncture in heparinized tubes (16 IE heparin/mL blood). The blood was centrifuged at 4000 g for 20 min at 20° C. for preparation of leukocyte concentrates. Leukocyte concentrates were then subjected to dextran sedimentation and centrifugation on lymphocyte separation medium (LSM 1077, PAA, Colbe, Germany). Contaminating erythrocytes of pelleted neutrophils were removed by hypotonic Iysis. […] Method B. […] Cysteinyl-LTs C4, D4 and E4 were not detected (amounts were below detection limit), and oxidation products of LTB4 were not determined.

Series [2] addresses T2, 12-lipoxygenase (12-LO) (Homo sapiens, UniProt P18054).
T2 sequence (P18054 1-663): T1 sequence (P18054 1-663)
The experiment in a line: 12-LO inhibition assay, Method A (Cerep). It is filed as biochemical. The method, then:
(§1) Method A: 5-Lipoxygenase (5-LO), 12-lipoxygenase (12-LO) and 15-lipoxygenase-2 (15-LO-2) inhibition assays were performed at Cerep, SA (Celle l'Evescault, France) on a fee-for-service basis (Ref 0772^36, 0883^37 and 0893^38, respectively), as described in Table 1.

Series [3] has as its target T3, 15-lipoxygenase-2 (15-LO-2) (Homo sapiens, UniProt O15296).
T3 sequence (O15296 1-676): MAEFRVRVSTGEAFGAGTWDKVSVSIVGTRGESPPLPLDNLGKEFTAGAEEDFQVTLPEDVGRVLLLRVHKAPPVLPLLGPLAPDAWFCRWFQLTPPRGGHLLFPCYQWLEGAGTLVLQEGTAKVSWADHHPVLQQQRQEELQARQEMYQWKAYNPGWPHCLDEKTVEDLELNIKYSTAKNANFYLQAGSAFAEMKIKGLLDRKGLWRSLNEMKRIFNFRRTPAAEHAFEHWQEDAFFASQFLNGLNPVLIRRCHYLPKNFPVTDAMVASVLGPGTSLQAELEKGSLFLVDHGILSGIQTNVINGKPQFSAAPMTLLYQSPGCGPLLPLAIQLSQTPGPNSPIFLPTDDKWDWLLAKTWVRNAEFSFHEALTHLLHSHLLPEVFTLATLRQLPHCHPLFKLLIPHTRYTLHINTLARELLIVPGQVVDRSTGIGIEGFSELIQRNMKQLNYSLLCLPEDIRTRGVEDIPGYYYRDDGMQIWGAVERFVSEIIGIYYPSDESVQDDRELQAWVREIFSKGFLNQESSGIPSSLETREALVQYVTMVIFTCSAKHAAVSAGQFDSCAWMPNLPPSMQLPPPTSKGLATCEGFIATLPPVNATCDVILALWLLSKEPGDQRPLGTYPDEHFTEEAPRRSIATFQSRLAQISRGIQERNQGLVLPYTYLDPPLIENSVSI
In words: 15-LO-2 inhibition assay, Method A (Cerep). It is filed as biochemical. The method, then: as §1

The target of series [4] is T4, EP3 (Homo sapiens, UniProt P43115).
T4 sequence (P43115 1-390): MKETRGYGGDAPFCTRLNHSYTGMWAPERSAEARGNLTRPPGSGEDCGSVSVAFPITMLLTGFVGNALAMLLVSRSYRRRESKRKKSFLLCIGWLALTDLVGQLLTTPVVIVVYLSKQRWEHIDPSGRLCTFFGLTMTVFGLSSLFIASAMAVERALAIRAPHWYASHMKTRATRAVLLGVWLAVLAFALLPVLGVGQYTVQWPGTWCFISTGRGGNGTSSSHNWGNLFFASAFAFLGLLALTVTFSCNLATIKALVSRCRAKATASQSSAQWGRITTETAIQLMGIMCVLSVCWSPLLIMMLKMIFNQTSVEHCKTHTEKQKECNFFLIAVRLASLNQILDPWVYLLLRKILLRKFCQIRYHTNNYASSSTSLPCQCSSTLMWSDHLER
In words: Prostanoid EP3 receptor antagonism, functional assay. It is filed as cell-based. The settings on record: 150 μM.

For series [5], the system named is Escherichia coli K12. In words: MIC/MBC assay, E. coli. The format is cell-based. The settings on record: read-out: Minimum bactericidal concentration. The method, then:
Escherichia coli K12 and Staphylococcus aureus ATCC 25923 were grown overnight at 37° C. and re-inoculated in 24-well plates containing 2.5 mL of Luria Bertani medium (LB) to give an optical density of ˜0.01 at 600 nm. Stock solutions of β-lapachone, and lapachol were prepared in DMSO (1% final concentration) and added to the cell suspensions to obtain final concentrations between 5-210 μM. Wells containing a growth control (cell suspensions with 1% DMSO) and a sterile media control were also prepared. The plates were incubated for 18 h at 37° C. and 90 r.p.m. The concentration of compound in the first well in the series that presented no sign of visible growth was reported as the MIC. The OD600 of the cultures was also measured. All the MIC wells were serially diluted in phosphate buffer saline (PBS) and plated onto LB agar plates.

Series [6] deals with HEL-GFP cells. In words: Xenograft model of human AML, HEL-GFP cells in NSG mice. It is filed as in vivo. On the procedure: The xenograft model of human AML used relies in the intra-bone marrow injection of 5×10^5 HEL-GFP cells into the right tibia of previously irradiated (200 rad) NSG mice. Upon tumor trigger in the blood mouse are randomly assigned for treatment with 1 (50 mg/kg intra-peritoneal) or vehicle.
(In general: In xenograft studies the graft and the host belong to different species.)

For series [7] the following is noted: mouse, in vivo, iv, 100 mg/kg.

Take `CC1(C)CCC2=C(O1)c1ccccc1C(=O)C2=O` [Compound 1, 3,4-dihydro-2,2-dimethyl-2H-naphtho[1,2-b]pyran-5,6-dione]: the IC50 (in general, the point on the concentration scale where inhibition reaches its midpoint) in series [1] is over 30 µM. Moreover, the inhibition (usually the relative decrease from the control value, in per cent) at 5 µM was 38% in series [2] and -13% in series [3]. Besides, the EP3 antagonist effect in series [4] is given as 95%. For the same molecule, the MBC in series [5] was over 200 µM. The Overall survival result in series [6] (50 mg/kg intra-peritoneal) was “significantly increased overall survival”. In addition, the “Tumour burden in the blood” value in series [6] (50 mg/kg intra-peritoneal, day 9) was “tendency for lower burden”. Moreover, the “Tumour burden in organs (liver, spleen and lung)” value in series [6] (longest-living treated mouse, sacrificed at day 30, versus non-treated controls) is “lower tumour burden in all the analysed organs”. Also, the “Toxicity at higher doses” value in series [7] is given as “toxicity”.

Source of the values: patent publication US20210161855A1, “5-LIPOXYGENASE ANTAGONISTS” (INSTITUTO DE MEDICINA MOLECULAR JOÃO LOBO ANTUNES, priority 2017, published 2021).
